# From ChEMBL document CHEMBL1143756, “Alpha-substituted N-(4-tert-butylbenzyl)-N'-[4-(methylsulfonylamino)benzyl]thiourea analogues as potent and stereospecific TRPV1 antagonists” (Bioorg Med Chem, 2007)
# How the values were obtained:
# [1] = target: T1, Transient receptor potential cation channel subfamily V member 1 (Rattus norvegicus, UniProt O35433); assay: Antagonist activity at rat TRPV1 receptor expressed in CHO cells by Ca2+ uptake assay
# [2] = target: Transient receptor potential cation channel subfamily V member 1 (Rattus norvegicus) (UniProt O35433); assay: Agonist activity at rat TRPV1 receptor expressed in CHO cells by Ca2+ uptake assay; type: functional, cell-based
# [3] = target: T1, Transient receptor potential cation channel subfamily V member 1; assay: Displacement of [3H]RTX from rat TRPV1 receptor expressed in CHO cells; type: cell-based
# T1 sequence (O35433 whole entry): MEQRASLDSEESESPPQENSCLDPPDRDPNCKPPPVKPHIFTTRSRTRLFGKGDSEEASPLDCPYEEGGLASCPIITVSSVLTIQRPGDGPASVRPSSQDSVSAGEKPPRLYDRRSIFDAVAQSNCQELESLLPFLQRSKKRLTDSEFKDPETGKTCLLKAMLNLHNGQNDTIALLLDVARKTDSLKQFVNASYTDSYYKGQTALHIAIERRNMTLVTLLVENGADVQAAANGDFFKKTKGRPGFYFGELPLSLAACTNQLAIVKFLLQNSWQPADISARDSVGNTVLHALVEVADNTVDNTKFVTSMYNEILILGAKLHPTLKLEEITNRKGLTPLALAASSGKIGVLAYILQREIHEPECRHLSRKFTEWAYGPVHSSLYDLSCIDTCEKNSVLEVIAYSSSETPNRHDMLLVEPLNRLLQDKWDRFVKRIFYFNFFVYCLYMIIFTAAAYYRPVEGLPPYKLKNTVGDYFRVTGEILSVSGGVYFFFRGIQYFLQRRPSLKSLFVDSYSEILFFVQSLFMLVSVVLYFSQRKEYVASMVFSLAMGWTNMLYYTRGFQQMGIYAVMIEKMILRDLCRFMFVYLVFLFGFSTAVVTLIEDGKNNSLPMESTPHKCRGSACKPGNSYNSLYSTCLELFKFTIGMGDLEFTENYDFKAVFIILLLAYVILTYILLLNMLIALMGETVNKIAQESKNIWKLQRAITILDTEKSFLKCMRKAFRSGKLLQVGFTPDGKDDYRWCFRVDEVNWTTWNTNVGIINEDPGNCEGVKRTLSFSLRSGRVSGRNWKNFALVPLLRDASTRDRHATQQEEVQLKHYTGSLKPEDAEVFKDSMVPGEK
# Sequence of Transient receptor potential cation channel subfamily V member 1 (Rattus norvegicus) (O35433 whole entry): as above
Structure (SMILES),Ki [1] [nM],Activity [2] [%],Ki [3] [nM]
CC(C)(C)c1ccc(CNC(=S)NC(C)(C)c2ccc(NS(C)(=O)=O)cc2)cc1,1800,,
C[C@H](/N=C(\S)NCc1ccc(C(C)(C)C)cc1)c1ccc(NS(C)(=O)=O)cc1,,8,
C[C@H](NC(=S)NCc1ccc(C(C)(C)C)cc1)c1ccc(NS(C)(=O)=O)c(F)c1,2670,,2140
COc1cc(CNC(=S)NCc2ccc(C(C)(C)C)cc2)ccc1NS(C)(=O)=O,,18,51
C[C@H](NC(=S)NCc1ccc(C(C)(C)C)cc1)c1ccc(NS(C)(=O)=O)cc1,,,3950
C[C@@H](NC(=S)NCc1ccc(C(C)(C)C)cc1)c1ccc(NS(C)(=O)=O)c(F)c1,37,,
CC(NC(=S)NCc1ccc(C(C)(C)C)cc1)c1ccc(NS(C)(=O)=O)cc1 (configuration not stated),14.7,,59.3
CN(C)CCCN1c2ccccc2Sc2ccc(Cl)cc21 [CHLORPROMAZINE],520,,1300
